Like-named read-outs stand apart in the source and are kept apart here. Each block holds one compound with its values, some of them ahead of it.
Legend:
MDA-MB-468 [1] = test: Colony formation assay; assay type: cell-based, human; conditions: 8 nM, MDA-MB-468 cells
Method: (§1) Colony formation assay. […] The medium of each group was renewed once a week. […] The morphology of colonies was captured under a microscope and colony area was quantified using ImageJ software (NIH, Bethesda, Md.). The drug treatment was performed in triplicate.

MDA-MB-231 cells [2] = test: Scratch assay (cell migration); assay type: cell-based, human; conditions: 16 nM
Method: Cell migration was also analyzed by the scratch assay. […] The following day, a scratch was made in the cell monolayer by using a sterile 200-μl pipette tip. […] After 12 h, 24 h and 48 h, the wound width was determined and imaged with Evos Fl Imaging System (Life Technologies, Carlsbad, Calif.). The extent of wound closure was shown as the percentage of decrease of the original scratch width at each measured time point. Experiments were done in triplicate.

MDA-MB-468 [3] = test: cells; conditions: Homo sapiens
[4] = tested on: MDA-MB-231 xenograft tumors; test: H&E and IHC analysis of orthotopic TNBC tumors; assay type: in vivo, NSG mice; conditions: 12.5 mg/kg
[5] = tested on: paclitaxel resistant PC-3 cells; test: In vitro cytotoxicity after 96 hours; assay type: cell-based
MDA-MB-231 cells [6] = test: Experimental lung metastasis model (tail vein); conditions: 10 mg/kg, 22 days of treatment
MDA-MB-231 xenografts = test: Orthotopic TNBC xenograft model, 18 days
[7] = tested on: TNBC spontaneous lung metastasis; test: Spontaneous lung metastasis in orthotopic TNBC model; assay type: in vivo, mice; conditions: 12.5 mg/kg
MDA-MB-231 = test: Colony formation assay; assay type: cell-based, human; conditions: 8 nM
Method: as §1

Brain penetration = assay type: in vivo
PC-3/TxR tumors = test: Paclitaxel resistant prostate cancer xenograft; conditions: in vivo
[8] = after 48 hours, MDA-MB-231 as printed

Structure (SMILES): COc1cc2c(c(OC)c1OC)-c1ccc(OC)c(=O)cc1[C@@H](NC(C)=O)CC2 [colchicine]
- reductions in colony formation (MDA-MB-468 [1]): 51%
- average migration rate, scratch assay (MDA-MB-231 cells [2]; after 24 hours): 67.3%
- average migration rate, scratch assay (MDA-MB-231 cells [2]; [8]): 15.8%

- IC50 (MDA-MB-468 [3]; MDA-MB-468, read-out: IC50 (FIG. 37)): 4.61 nM
- IC50 (MDA-MB-468 [3]; MDA-MB-468, read-out: IC50, cell viability): 4.61 nM
Structure (SMILES): CC(=O)O[C@H]1C(=O)[C@@]2(C)[C@H]([C@H](OC(=O)c3ccccc3)[C@]3(O)C[C@H](OC(=O)[C@H](O)[C@@H](NC(=O)c4ccccc4)c4ccccc4)C(C)=C1C3(C)C)[C@]1(OC(C)=O)CO[C@@H]1C[C@@H]2O [paclitaxel]
- necrotic area of tumors [4]: 41.5%
- potency in paclitaxel resistant PC-3 cells [5]: lose potency
- body weights and physical activities of mice (MDA-MB-231 cells [6]): slightly decreased
- lung metastasis of TNBC (MDA-MB-231 cells [6]): significantly inhibited lung metastasis
- average final tumor weight (MDA-MB-231 xenografts; 12.5 mg/kg): 0.38 g
- body weight during treatment (MDA-MB-231 xenografts; 18 days, paclitaxel 12.5 mg/kg): decreased mice body weight significantly
- spontaneous lung metastasis, mice [7]: all eight mice had no metastasis
- relative percentage of colonies (MDA-MB-231): 27.5%
- reductions in colony formation (MDA-MB-468 [1]): 7.4%
- average migration rate, scratch assay (MDA-MB-231 cells [2]; after 24 hours): 13.3%
- average migration rate, scratch assay (MDA-MB-231 cells [2]; [8]): 14.5%

- Kp at 4 h (Brain penetration; brain, 4 h after oral treatment, read-out: Brain/plasma concentration ratio): ~0.2
- Brain/plasma concentration ratios over time (Brain penetration; in vivo): remained relatively constant over time
- brain penetration (Brain penetration; in vivo): high brain penetration
Structure (SMILES): COc1cc(C(=O)c2csc(Nc3ccc4[nH]ccc4c3)n2)cc(OC)c1OC [Compound 55, (2-(1H-indol-5-ylamino)thiazol-4-yl)(3,4,5-trimethoxyphenyl)methanone]

Structure (SMILES): CC(=O)O[C@@]12CO[C@@H]1C[C@H](O)[C@@]1(C)C(=O)[C@H](O)C3=C(C)[C@@H](OC(=O)[C@H](O)[C@@H](NC(=O)OC(C)(C)C)c4ccccc4)C[C@@](O)([C@@H](OC(=O)c4ccccc4)[C@H]21)C3(C)C [docetaxel]
- efficacy in PC-3/TxR tumors (PC-3/TxR tumors): lack of efficacy
- potency in paclitaxel resistant PC-3 cells [5]: lose potency

— patent publication US20190389841A1, “COMPOUNDS FOR TREATMENT OF TRIPLE NEGATIVE BREAST CANCER AND OVARIAN CANCER” (UNIVERSITY OF TENNESSEE RESEARCH FOUNDATION, priority 2018, published 2019)
